From ChEMBL document CHEMBL1138948, “Design, synthesis, and evaluation of proline and pyrrolidine based melanocortin receptor agonists. A conformationally restricted dipeptide mimic approach” (J Med Chem, 2006) come the findings set out here.

The target of data set [1] is T1, Melanocortin receptor 3 (Homo sapiens, UniProt P41968). The experiment in a line: Displacement of europium labeled NDP-alpha-MSH from human MC3R expressed in HEK293 cells. Type of data set: cell-based.
The target in data set [2] is T2, Melanocortin receptor 4 (Homo sapiens, UniProt P32245). The experiment in a line: Displacement of europium labeled NDP-alpha-MSH from human MC4R expressed in HEK293 cells. Type of data set: cell-based.
The target in data set [3] is T3, Melanocyte-stimulating hormone receptor (Homo sapiens, UniProt Q01726). The experiment in a line: Displacement of europium labeled NDP-alpha-MSH from human MC1R expressed in HEK293 cells. It counts as cell-based.
Data set [4] has as its target Melanocortin receptor (M1 and M4) (Homo sapiens) (UniProt P32245+Q01726). Kind of data set: Selectivity for human MC4R over human MC1R. It counts as protein assay.
Data set [5] has as its target T1, Melanocortin receptor 3. Kind of data set: Agonist activity at human MC3R transfected in HEK293 cells. Type of data set: functional, cell-based.
For data set [6], the target named is T2, Melanocortin receptor 4. Kind of data set: Agonist activity at human MC4R transfected in HEK293 cells. Type of data set: functional, cell-based.
Data set [7] concerns the target T3, Melanocyte-stimulating hormone receptor. Kind of data set: Agonist activity at human MC1R transfected in HEK293 cells. Type of data set: functional, cell-based.
Data set [8] is described as follows: Exsorptive permeability across Caco-2 cell membrane. The following applies: human, read-out: permeability (converted). Type of data set: ADME, cell-based. (Caco-2 monolayers are a common model of the intestinal barrier.)
Data set [9] can be described thus: Absorptive permeability across Caco-2 cell membrane. Type of data set: ADME, cell-based. As to conditions: human, read-out: permeability (converted).

pEC50, pKi: −log10 of the molar value.

T3 sequence (Q01726 whole entry): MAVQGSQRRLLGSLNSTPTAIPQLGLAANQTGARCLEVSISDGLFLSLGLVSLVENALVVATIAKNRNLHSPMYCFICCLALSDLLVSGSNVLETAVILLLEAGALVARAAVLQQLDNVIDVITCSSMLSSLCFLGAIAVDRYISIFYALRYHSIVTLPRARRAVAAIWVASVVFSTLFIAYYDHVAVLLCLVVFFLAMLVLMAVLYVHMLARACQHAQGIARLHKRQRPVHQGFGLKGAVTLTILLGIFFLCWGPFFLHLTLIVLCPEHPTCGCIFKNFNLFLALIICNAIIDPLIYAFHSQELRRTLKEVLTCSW
T2 sequence (P32245 whole entry): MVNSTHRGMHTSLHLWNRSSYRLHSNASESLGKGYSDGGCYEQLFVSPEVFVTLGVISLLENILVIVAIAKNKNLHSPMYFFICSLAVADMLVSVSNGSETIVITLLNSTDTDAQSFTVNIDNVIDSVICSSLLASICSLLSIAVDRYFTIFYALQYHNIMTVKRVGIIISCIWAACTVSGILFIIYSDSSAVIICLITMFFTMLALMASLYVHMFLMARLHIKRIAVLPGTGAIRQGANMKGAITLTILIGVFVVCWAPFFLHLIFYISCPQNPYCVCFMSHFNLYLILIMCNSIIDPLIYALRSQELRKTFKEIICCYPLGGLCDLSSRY
T1 sequence (P41968 whole entry): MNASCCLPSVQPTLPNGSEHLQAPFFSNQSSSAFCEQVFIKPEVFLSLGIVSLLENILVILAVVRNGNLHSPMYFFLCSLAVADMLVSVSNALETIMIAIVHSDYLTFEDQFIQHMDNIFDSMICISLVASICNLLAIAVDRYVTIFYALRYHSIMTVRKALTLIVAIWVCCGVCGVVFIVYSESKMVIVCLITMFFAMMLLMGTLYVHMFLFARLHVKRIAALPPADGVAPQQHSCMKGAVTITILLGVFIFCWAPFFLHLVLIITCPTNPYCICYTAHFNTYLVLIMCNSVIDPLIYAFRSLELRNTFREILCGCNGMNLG

`N=C(N)NCCNC(=O)[C@H]1C[C@@H](OCc2ccc3ccccc3c2)CN1C(=O)[C@@H](Cc1ccccc1)NC(=O)[C@@H]1Cc2ccccc2CN1`: the negative logarithm of the Ki (pKi) on Melanocortin receptor 3 [1] is 5.36; on Melanocortin receptor 4 [2], 6.39; in data set [3], 5.79. For the same compound, in [4], the Selectivity ratio is 4. The figures for the pEC50 (at Melanocortin receptor 3 [5]; on Melanocortin receptor 4 [6]; in data set [7]) were 6.08, 7.01 and 6.27, respectively.

For the compound `CC(=O)N[C@H](Cc1ccccc1)C(=O)N1C[C@H](OCc2ccc3ccccc3c2)C[C@@H]1CCCN=C(N)N`, the pKi is 6.54 on Melanocortin receptor 3 [1], 7.05 at Melanocortin receptor 4 [2] and 6.33 in data set [3]. The pEC50 at Melanocortin receptor 3 [5] was 5.86; at Melanocortin receptor 4 [6], 6.50; in data set [7], 6.63. Further, the Papp in data set [8] is 6.17 ×10⁻⁶ cm/s. In addition, the Papp A→B in data set [9] is 7.5 ×10⁻⁶ cm/s.

With `CC(=O)N[C@@H](Cc1ccc(O)cc1)C(=O)N[C@H](Cc1ccccc1)C(=O)N1C[C@H](OCc2ccc3ccccc3c2)C[C@@H]1C(=O)NCCN=C(N)N`, the pKi was 6.30 on Melanocortin receptor 3 [1], 6.25 on Melanocortin receptor 4 [2] and 5.69 in [3]. The Selectivity ratio in data set [4] stood at 4. Besides, the figures for the pEC50 (on Melanocortin receptor 3 [5]; at Melanocortin receptor 4 [6]; in data set [7]) were 5.91, 6.60 and 5.87, respectively.

In the case of `CC(=O)N[C@@H](Cc1ccc(O)cc1)C(=O)N[C@H](Cc1ccccc1)C(=O)N1C[C@H](OCc2ccc3ccccc3c2)C[C@@H]1CCCN=C(N)N`, the negative-log Ki (pKi) is 7.38 at Melanocortin receptor 3 [1], 7.68 on Melanocortin receptor 4 [2] and 7.07 in [3]. Besides, in data set [4], the Selectivity ratio is 4. Further, the pEC50 was 7.07 at Melanocortin receptor 3 [5], 7.85 at Melanocortin receptor 4 [6] and 7.06 in data set [7].

On to `CC(=O)N[C@@H](Cc1cnc[nH]1)C(=O)N[C@H](Cc1ccccc1)C(=O)N1C[C@H](OCc2ccc3ccccc3c2)C[C@@H]1C(=O)NCCN=C(N)N`, for which the figures for the pKi (at Melanocortin receptor 3 [1]; on Melanocortin receptor 4 [2]; in data set [3]) were 6.08, 5.80 and 7.89, respectively. The results for the pEC50 (at Melanocortin receptor 3 [5]; on Melanocortin receptor 4 [6]; in data set [7]) were 6.47, 6.82 and 8.52, respectively. Moreover, the Papp in [8] was 0.5 ×10⁻⁶ cm/s. The Papp A→B in data set [9] is 1 ×10⁻⁶ cm/s.

On to `CC(=O)N[C@@H](Cc1c[nH]cn1)C(=O)N[C@H](Cc1ccccc1)C(=O)N1C[C@@H](OCc2ccc3ccccc3c2)C[C@H]1CCCN=C(N)N`, for which the pKi on Melanocortin receptor 3 [1] was 5.71; on Melanocortin receptor 4 [2] it was 7.85; in data set [3] it was 5.53. In addition, the Selectivity ratio in data set [4] is above 150. The values for the pEC50 (at Melanocortin receptor 3 [5]; at Melanocortin receptor 4 [6]; in data set [7]) were 5.95, 8.05 and 5.91, respectively.

For `OC[C@@H](O)[C@@H](O)[C@H](O)[C@H](O)CO` [MANNITOL], the Papp in [8] was 1.83 ×10⁻⁶ cm/s. The Papp A→B in [9] is 2.17 ×10⁻⁶ cm/s.

For the compound `NC(N)=NCCC[C@H]1C[C@@H](OCc2ccc3ccccc3c2)CN1C(=O)[C@@H](Cc1ccccc1)NC(=O)[C@@H]1CCCN1`, the figures for the pKi (at Melanocortin receptor 3 [1]; on Melanocortin receptor 4 [2]; in data set [3]) were 6.66, 7.34 and 7.26, respectively. For the same compound, the negative logarithm of the EC50 (pEC50) is 6.23 at Melanocortin receptor 3 [5], 7.77 at Melanocortin receptor 4 [6] and 7.28 in data set [7].

With `CC(=O)N[C@@H](Cc1c[nH]cn1)C(=O)N[C@H](Cc1ccccc1)C(=O)N1C[C@@H](OCc2ccc3ccccc3c2)C[C@@H]1CCCN=C(N)N`, the negative logarithm of the Ki (pKi) was 6.93 on Melanocortin receptor 3 [1], 7.24 on Melanocortin receptor 4 [2] and 8.89 in [3]. Besides, the pEC50 on Melanocortin receptor 3 [5] was 8.89; at Melanocortin receptor 4 [6], 8.64; in [7], 10.35.

One may read the pKi as the Ki on a negative log10 scale, so that one unit is a factor of ten. One may read the pEC50 as the EC50 on a negative log10 scale, so that one unit is a factor of ten.
